Assay results published in ChEMBL document CHEMBL1156482, “Molecular mechanism of action of monocyclam versus bicyclam non-peptide antagonists in the CXCR4 chemokine receptor” (J Biol Chem, 2007).

What was measured:
[1] = biological target: C-X-C chemokine receptor type 4 (Homo sapiens, UniProt P61073, E288A); assay: (§1) Antagonist activity at human CXCR4 E288A mutant expressed in COS7 cells coexpressing G protein Gqi4myr assessed as inhibition of CXCL12-induced phosphatidylinositol turnover; type: functional, cell-based, COS-7
[2] = tested on: C-X-C chemokine receptor type 4 (Homo sapiens), P61073 [E288A]; assay: as §1; type: functional, cell-based; conditions: COS-7
[3] = biological target: C-X-C chemokine receptor type 4 (Homo sapiens, UniProt P61073, I259W); assay: (§2) Antagonist activity at human CXCR4 I259W mutant expressed in COS7 cells coexpressing G protein Gqi4myr assessed as inhibition of CXCL12-induced phosphatidylinositol turnover; type: functional, cell-based, COS-7
[4] = tested on: C-X-C chemokine receptor type 4 (Homo sapiens), P61073 [I259W]; assay: as §2; type: functional, cell-based; conditions: COS-7
[5] = biological target: C-X-C chemokine receptor type 4 (Homo sapiens, UniProt P61073, H281A); assay: (§3) Antagonist activity at human CXCR4 H281A mutant expressed in COS7 cells coexpressing G protein Gqi4myr assessed as inhibition of CXCL12-induced phosphatidylinositol turnover; type: functional, cell-based, COS-7
[6] = tested on: C-X-C chemokine receptor type 4 (Homo sapiens), P61073 [H281A]; assay: as §3; type: functional, cell-based; conditions: COS-7
[7] = tested on: C-X-C chemokine receptor type 4 (Homo sapiens), P61073 [Q200W]; assay: (§4) Antagonist activity at human CXCR4 Q200W mutant expressed in COS7 cells coexpressing G protein Gqi4myr assessed as inhibition of CXCL12-induced phosphatidylinositol turnover; type: functional, cell-based; conditions: COS-7
[8] = biological target: C-X-C chemokine receptor type 4 (Homo sapiens, UniProt P61073, Q200W); assay: as §4; type: functional, cell-based, COS-7
[9] = biological target: C-X-C chemokine receptor type 4 (Homo sapiens, UniProt P61073, D262N); assay: (§5) Antagonist activity at human CXCR4 D262N mutant expressed in COS7 cells coexpressing G protein Gqi4myr assessed as inhibition of CXCL12-induced phosphatidylinositol turnover; type: functional, cell-based, COS-7
[10] = tested on: C-X-C chemokine receptor type 4 (Homo sapiens), P61073 [D262N]; assay: as §5; type: functional, cell-based; conditions: COS-7
[11] = biological target: C-X-C chemokine receptor type 4 (Homo sapiens, UniProt P61073, I259A); assay: (§6) Antagonist activity at transmembrane domain 6 of human CXCR4 I259A mutant expressed in COS7 cells coexpressing G protein Gqi4myr assessed as inhibition of CXCL12-induced phosphatidylinositol turnover; type: functional, cell-based, COS-7
[12] = tested on: C-X-C chemokine receptor type 4 (Homo sapiens), P61073 [I259A]; assay: as §6; type: functional, cell-based; conditions: COS-7
[13] = biological target: C-X-C chemokine receptor type 4 (Homo sapiens, UniProt P61073, H113A); assay: (§7) Antagonist activity at human CXCR4 H113A mutant expressed in COS7 cells coexpressing G protein Gqi4myr assessed as inhibition of CXCL12-induced phosphatidylinositol turnover; type: functional, cell-based, COS-7
[14] = tested on: C-X-C chemokine receptor type 4 (Homo sapiens), P61073 [H113A]; assay: as §7; type: functional, cell-based; conditions: COS-7
[15] = tested on: C-X-C chemokine receptor type 4 (Homo sapiens), P61073 [A175F]; assay: (§8) Antagonist activity at human CXCR4 A175F mutant expressed in COS7 cells coexpressing G protein Gqi4myr assessed as inhibition of CXCL12-induced phosphatidylinositol turnover; type: functional, cell-based; conditions: COS-7
[16] = biological target: C-X-C chemokine receptor type 4 (Homo sapiens, UniProt P61073, A175F); assay: as §8; type: functional, cell-based, COS-7
[17] = biological target: C-X-C chemokine receptor type 4 (Homo sapiens, UniProt P61073, F172A); assay: (§9) Antagonist activity at human CXCR4 F172A mutant expressed in COS7 cells coexpressing G protein Gqi4myr assessed as inhibition of CXCL12-induced phosphatidylinositol turnover; type: functional, cell-based, COS-7
[18] = tested on: C-X-C chemokine receptor type 4 (Homo sapiens), P61073 [F172A]; assay: as §9; type: functional, cell-based; conditions: COS-7
[19] = tested on: C-X-C chemokine receptor type 4 (Homo sapiens), P61073 [H203A]; assay: (§10) Antagonist activity at human CXCR4 H203A mutant expressed in COS7 cells coexpressing G protein Gqi4myr assessed as inhibition of CXCL12-induced phosphatidylinositol turnover; type: functional, cell-based; conditions: COS-7
[20] = biological target: C-X-C chemokine receptor type 4 (Homo sapiens, UniProt P61073, H203A); assay: as §10; type: functional, cell-based, COS-7
[21] = biological target: C-X-C chemokine receptor type 4 (Homo sapiens, UniProt P61073); assay: Antagonist activity at human wild type CXCR4 expressed in COS7 cells coexpressing G protein Gqi4myr assessed as inhibition of CXCL12-induced phosphatidylinositol turnover; type: functional, cell-based, COS-7
[22] = tested on: C-X-C chemokine receptor type 4 (Homo sapiens), P61073 [T287A]; assay: (§11) Antagonist activity at human CXCR4 T287A mutant expressed in COS7 cells coexpressing G protein Gqi4myr assessed as inhibition of CXCL12-induced phosphatidylinositol turnover; type: functional, cell-based; conditions: COS-7
[23] = biological target: C-X-C chemokine receptor type 4 (Homo sapiens, UniProt P61073, T287A); assay: as §11; type: functional, cell-based, COS-7
[24] = biological target: C-X-C chemokine receptor type 4 (Homo sapiens, UniProt P61073, Q200A); assay: (§12) Antagonist activity at human CXCR4 Q200A mutant expressed in COS7 cells coexpressing G protein Gqi4myr assessed as inhibition of CXCL12-induced phosphatidylinositol turnover; type: functional, cell-based, COS-7
[25] = tested on: C-X-C chemokine receptor type 4 (Homo sapiens), P61073 [Q200A]; assay: as §12; type: functional, cell-based; conditions: COS-7
[26] = biological target: C-X-C chemokine receptor type 4 (Homo sapiens, UniProt P61073, Y255A); assay: (§13) Antagonist activity at human CXCR4 Y255A mutant expressed in COS7 cells coexpressing G protein Gqi4myr assessed as inhibition of CXCL12-induced phosphatidylinositol turnover; type: functional, cell-based, COS-7
[27] = tested on: C-X-C chemokine receptor type 4 (Homo sapiens), P61073 [Y255A]; assay: as §13; type: functional, cell-based; conditions: COS-7
[28] = tested on: C-X-C chemokine receptor type 4 (Homo sapiens), P61073 [V196A]; assay: (§14) Antagonist activity at human CXCR4 V196A mutant expressed in COS7 cells coexpressing G protein Gqi4myr assessed as inhibition of CXCL12-induced phosphatidylinositol turnover; type: functional, cell-based; conditions: COS-7
[29] = biological target: C-X-C chemokine receptor type 4 (Homo sapiens, UniProt P61073, V196A); assay: as §14; type: functional, cell-based, COS-7
[30] = biological target: C-X-C chemokine receptor type 4 (Homo sapiens, UniProt P61073, L120F); assay: (§15) Antagonist activity at human CXCR4 L120F mutant expressed in COS7 cells coexpressing G protein Gqi4myr assessed as inhibition of CXCL12-induced phosphatidylinositol turnover; type: functional, cell-based, COS-7
[31] = tested on: C-X-C chemokine receptor type 4 (Homo sapiens), P61073 [L120F]; assay: as §15; type: functional, cell-based; conditions: COS-7
[32] = tested on: C-X-C chemokine receptor type 4 (Homo sapiens), P61073 [I284A]; assay: (§16) Antagonist activity at human CXCR4 I284A mutant expressed in COS7 cells coexpressing G protein Gqi4myr assessed as inhibition of CXCL12-induced phosphatidylinositol turnover; type: functional, cell-based; conditions: COS-7
[33] = biological target: C-X-C chemokine receptor type 4 (Homo sapiens, UniProt P61073, I284A); assay: as §16; type: functional, cell-based, COS-7
[34] = biological target: C-X-C chemokine receptor type 4 (Homo sapiens, UniProt P61073, D171N); assay: (§17) Antagonist activity at human CXCR4 D171N mutant expressed in COS7 cells coexpressing G protein Gqi4myr assessed as inhibition of CXCL12-induced phosphatidylinositol turnover; type: functional, cell-based, COS-7
[35] = tested on: C-X-C chemokine receptor type 4 (Homo sapiens), P61073 [D171N]; assay: as §17; type: functional, cell-based; conditions: COS-7

C-X-C chemokine receptor type 4 (Homo sapiens, UniProt P61073), sequence (P61073 whole entry): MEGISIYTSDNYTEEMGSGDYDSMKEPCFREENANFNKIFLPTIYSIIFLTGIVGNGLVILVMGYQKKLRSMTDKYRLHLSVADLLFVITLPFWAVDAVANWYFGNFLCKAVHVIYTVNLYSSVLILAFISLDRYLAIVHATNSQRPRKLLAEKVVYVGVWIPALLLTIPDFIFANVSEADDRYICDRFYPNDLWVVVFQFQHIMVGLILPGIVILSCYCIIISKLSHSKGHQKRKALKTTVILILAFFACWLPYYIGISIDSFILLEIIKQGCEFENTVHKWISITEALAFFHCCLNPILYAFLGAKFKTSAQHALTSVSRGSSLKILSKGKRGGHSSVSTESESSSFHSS
C-X-C chemokine receptor type 4 (Homo sapiens, UniProt P61073, E288A), sequence (P61073 whole entry E288A): as the sequence (P61073 whole entry) above, with E288A counted along it
C-X-C chemokine receptor type 4 (Homo sapiens), P61073 [E288A], sequence (P61073 whole entry E288A): as the sequence (P61073 whole entry) above, with E288A counted along it
C-X-C chemokine receptor type 4 (Homo sapiens), P61073 [I259A], sequence (P61073 whole entry I259A): as the sequence (P61073 whole entry) above, with I259A counted along it
C-X-C chemokine receptor type 4 (Homo sapiens, UniProt P61073, I259A), sequence (P61073 whole entry I259A, the tested form may be a part): as the sequence (P61073 whole entry) above, with I259A counted along it
C-X-C chemokine receptor type 4 (Homo sapiens, UniProt P61073, I259W), sequence (P61073 whole entry I259W): as the sequence (P61073 whole entry) above, with I259W counted along it
C-X-C chemokine receptor type 4 (Homo sapiens), P61073 [I259W], sequence (P61073 whole entry I259W): as the sequence (P61073 whole entry) above, with I259W counted along it
C-X-C chemokine receptor type 4 (Homo sapiens), P61073 [A175F], sequence (P61073 whole entry A175F): as the sequence (P61073 whole entry) above, with A175F counted along it
C-X-C chemokine receptor type 4 (Homo sapiens, UniProt P61073, A175F), sequence (P61073 whole entry A175F): as the sequence (P61073 whole entry) above, with A175F counted along it
C-X-C chemokine receptor type 4 (Homo sapiens), P61073 [H281A], sequence (P61073 whole entry H281A): as the sequence (P61073 whole entry) above, with H281A counted along it
C-X-C chemokine receptor type 4 (Homo sapiens, UniProt P61073, H281A), sequence (P61073 whole entry H281A): as the sequence (P61073 whole entry) above, with H281A counted along it
C-X-C chemokine receptor type 4 (Homo sapiens, UniProt P61073, F172A), sequence (P61073 whole entry F172A): as the sequence (P61073 whole entry) above, with F172A counted along it
C-X-C chemokine receptor type 4 (Homo sapiens), P61073 [F172A], sequence (P61073 whole entry F172A): as the sequence (P61073 whole entry) above, with F172A counted along it

c1ccc(CNCc2ccc(CN3CCCNCCNCCCNCC3)cc2)cc1
Ki [1]: 11000 nM
logIC50 [2]: -4.96
Ki [3]: 3100 nM
logIC50 [4]: -5.5
Ki [5]: 1800 nM
logIC50 [6]: -5.75
logIC50 [7]: -5.14
Ki [8]: 7200 nM
Ki [9]: 2300 nM
logIC50 [10]: -5.64
Ki [11]: 910 nM
logIC50 [12]: -6.04
Ki [13]: 18000 nM
logIC50 [14]: -4.74
logIC50 [15]: -3.89
Ki [16]: 128000 nM
Ki [17]: 170 nM
logIC50 [18]: -5.92
logIC50 [19]: -5.14
Ki [20]: 7200 nM
Ki [21]: 1700 nM
logIC50 ([21]; COS-7): -5.76
logIC50 [22]: -6.46
Ki [23]: 340 nM
Ki [24]: 12000 nM
logIC50 [25]: -4.91
Ki [26]: 8800 nM
logIC50 [27]: -5.05
logIC50 [28]: -5.88
Ki [29]: 1300 nM
Ki [30]: 440 nM
logIC50 [31]: -6.36
logIC50 [32]: -6.38
Ki [33]: 420 nM
Ki [34]: 14000 nM
logIC50 [35]: -4.85
